From the NIST ThermoML archive (doi:10.1016/j.jct.2013.09.015)

Columns and labels:
[1] = excess molar enthalpy (molar enthalpy of mixing); xn = mol fraction of the nth substance listed; conditions: 298.15 K, 101 kPa, Liquid, Calvet calorimetry
[2] = 298.15 K, 101.33 kPa, Liquid; for speed of sound: Sing-around technique in a fixed-path interferometer; for mass density: Vibrating tube method

c1ccncc1 [pyridine] + CN1CCCC1=O
[1]
Conditions | excess molar enthalpy [kcal/mol]
x2 = 0.0911 | -0.0363
x2 = 0.1426 | -0.052
x2 = 0.1985 | -0.0669
x2 = 0.2312 | -0.0755
x2 = 0.2854 | -0.086
x2 = 0.312 | -0.0903
x2 = 0.3789 | -0.097
x2 = 0.443 | -0.103
x2 = 0.4995 | -0.104
x2 = 0.5478 | -0.102
x2 = 0.5851 | -0.1
x2 = 0.6359 | -0.0959
x2 = 0.6982 | -0.0895
x2 = 0.725 | -0.0852
x2 = 0.7732 | -0.0742
x2 = 0.8489 | -0.0552
x2 = 0.8923 | -0.0427
x2 = 0.9156 | -0.0345

CN1CCCC1=O [N-methylpyrrolidone]
[2]
Conditions | mass density [kg/m3] | speed of sound [m/s]
– | 1028.23 | 1546

CCn1cc[n+](C)c1.F[B-](F)(F)F [1-ethyl-3-methylimidazolium tetrafluoroborate]
[2]
Conditions | mass density [kg/m3] | speed of sound [m/s]
– | 1279.91 | 1619.4

O=C1CCCN1 [2-pyrrolidinone] + c1ccncc1
[1]
Conditions | excess molar enthalpy [kcal/mol]
x1 = 0.1213 | 0.0217
x1 = 0.1715 | 0.029
x1 = 0.2336 | 0.0366
x1 = 0.2615 | 0.0394
x1 = 0.3255 | 0.0446
x1 = 0.3701 | 0.0471
x1 = 0.4291 | 0.0489
x1 = 0.4711 | 0.0493
x1 = 0.5256 | 0.0485
x1 = 0.5713 | 0.0469
x1 = 0.6364 | 0.0431
x1 = 0.6716 | 0.0404
x1 = 0.7315 | 0.0348
x1 = 0.7619 | 0.0315
x1 = 0.8311 | 0.0232
x1 = 0.8751 | 0.0174
x1 = 0.9204 | 0.0112
x1 = 0.9344 | 0.00927

O=C1CCCN1 [2-pyrrolidinone]
[2]
Conditions | mass density [kg/m3] | speed of sound [m/s]
– | 1107.15 | 1633.9

c1ccncc1 [pyridine]
[2]
Conditions | mass density [kg/m3] | speed of sound [m/s]
– | 978.252 | 1417.8

CCn1cc[n+](C)c1.F[B-](F)(F)F [1-ethyl-3-methylimidazolium tetrafluoroborate] + O
[1]
Conditions | excess molar enthalpy [kcal/mol]
x1 = 0.1136 | 0.0374
x1 = 0.1678 | 0.0537
x1 = 0.2249 | 0.0693
x1 = 0.2734 | 0.0812
x1 = 0.331 | 0.0934
x1 = 0.3615 | 0.0989
x1 = 0.4325 | 0.109
x1 = 0.4709 | 0.112
x1 = 0.5314 | 0.115
x1 = 0.5722 | 0.115
x1 = 0.6291 | 0.113
x1 = 0.6685 | 0.109
x1 = 0.7311 | 0.0986
x1 = 0.771 | 0.0898
x1 = 0.8324 | 0.0724
x1 = 0.8694 | 0.0596
x1 = 0.9103 | 0.0434
x1 = 0.9311 | 0.0343

O=C1CCCN1 [2-pyrrolidinone] + O
[1]
Conditions | excess molar enthalpy [kcal/mol]
x1 = 0.1013 | -0.0589
x1 = 0.136 | -0.0776
x1 = 0.1745 | -0.0978
x1 = 0.2319 | -0.125
x1 = 0.2775 | -0.145
x1 = 0.3351 | -0.166
x1 = 0.3813 | -0.18
x1 = 0.4343 | -0.193
x1 = 0.4783 | -0.2
x1 = 0.5401 | -0.205
x1 = 0.5713 | -0.206
x1 = 0.6264 | -0.201
x1 = 0.6771 | -0.192
x1 = 0.7314 | -0.177
x1 = 0.7693 | -0.162
x1 = 0.8326 | -0.13
x1 = 0.8951 | -0.0899
x1 = 0.9204 | -0.0708
